Measurements from ChEMBL document CHEMBL1147242, “Briarlides, briarane diterpenes from a gorgonian Briareum sp” (J Nat Prod, 2003).
Values after ≈ are worked out from the molar mass of the structure shown.

Legend:
[1] = Cytotoxicity against african green monkey Vero cells; type: cell-based; details: chlorocebus sabaeus
[2] = Cytotoxicity against MDCK cells; type: cell-based, Canis lupus familiaris; details: dog

Row | Structure (SMILES) | CC50 [1] | CC50 [2]
1 | CCCCCCCC(=O)O[C@@H]1[C@@H](O)/C(C)=C\[C@@H]2OC(=O)[C@]3(C)O[C@]23[C@H](OC(C)=O)[C@H]2[C@](C)(O)[C@H](OC(C)=O)C=C[C@]2(C)[C@H]1OC(C)=O [BRIARLIDE F] | 4.26 µg/mL (≈ 6.41 µM) | 3.49 µg/mL (≈ 5.25 µM)
2 | CC(=O)O[C@@H]1[C@@H](OC(C)=O)/C(C)=C\[C@@H]2OC(=O)[C@]3(C)O[C@]23[C@H](OC(C)=O)[C@H]2[C@](C)(O)[C@H](O)C=C[C@]2(C)[C@H]1OC(C)=O [VIOLIDE B] | 9.8 µg/mL (≈ 16.9 µM) | 28.8 µg/mL (≈ 49.6 µM)
3 | CC(=O)O[C@@H]1[C@H]2[C@](C)(O)[C@H](OC(C)=O)C=C[C@]2(C)[C@@H](O)[C@H](O)[C@@H](OC(C)=O)/C(C)=C\[C@@H]2OC(=O)[C@]3(C)O[C@@]213 [BRIARLIDE C] | 62.1 µg/mL (≈ 115 µM) | 38.6 µg/mL (≈ 71.7 µM)
4 | CC(=O)O[C@@H]1[C@H]2[C@](C)(O)[C@H](O)C=C[C@]2(C)[C@@H](O)[C@H](OC(C)=O)C/C(C)=C\[C@@H]2OC(=O)[C@]3(C)O[C@@]213 [BRIARLIDE H] | > 100 µg/mL | > 100 µg/mL
5 | CC(=O)O[C@@H]1[C@H]2[C@](C)(O)[C@H](OC(C)=O)C=C[C@]2(C)[C@@H](OC(C)=O)[C@H](OC(C)=O)C/C(C)=C\[C@@H]2OC(=O)[C@]3(C)O[C@@]213 [BRIARLIDE G] | 22.2 µg/mL (≈ 39.3 µM) | 67.1 µg/mL (≈ 119 µM)
6 | CCCCCCCC(=O)O[C@H]1/C(C)=C\[C@@H]2OC(=O)[C@]3(C)O[C@]23[C@H](OC(C)=O)[C@H]2[C@](C)(O)[C@H](OC(C)=O)C=C[C@]2(C)[C@@H](OC(C)=O)[C@@H]1O [BRIARLIDE D] | 2.26 µg/mL (≈ 3.4 µM) | 2.49 µg/mL (≈ 3.75 µM)
7 | CCCCCC(=O)O[C@H]1/C(C)=C\[C@@H]2OC(=O)[C@]3(C)O[C@]23[C@H](OC(C)=O)[C@H]2[C@](C)(O)[C@H](OC(C)=O)C=C[C@]2(C)[C@@H](OC(C)=O)[C@@H]1O [BRIARLIDE E] | 4.24 µg/mL (≈ 6.66 µM) | 4.91 µg/mL (≈ 7.71 µM)
8 | CC(=O)O[C@@H]1[C@H]2[C@](C)(O)[C@H](OC(C)=O)C=C[C@]2(C)[C@@H](OC(C)=O)[C@H](O)[C@@H](OC(C)=O)/C(C)=C\[C@@H]2OC(=O)[C@]3(C)O[C@@]213 [BRIARLIDE B] | 18.9 µg/mL (≈ 32.6 µM) | 15.4 µg/mL (≈ 26.5 µM)
9 | CC(=O)O[C@@H]1[C@@H](OC(C)=O)/C(C)=C\[C@@H]2OC(=O)[C@]3(C)O[C@]23[C@H](OC(C)=O)[C@H]2[C@](C)(O)[C@H](OC(C)=O)C=C[C@]2(C)[C@H]1OC(C)=O [BRIARLIDE A] | 2.07 µg/mL (≈ 3.32 µM) | 4.74 µg/mL (≈ 7.61 µM)
